Source: patent US9670217B2, “Process for preparing chlorins and their pharmaceutical uses” (UNIVERSIDADE DE COIMBRA, priority 2008, dated 2017)

Experiments:
S91I3 (mouse melanoma) = assay: Cell photosensitization, 748 nm diode laser, resazurin; assay type: cell-based; settings: 6 J/cm^2 diode laser irradiation at 28.5 mW
Method: (§1) The cell lines employed in laser irradiation were the HT-29 (human colon carcinoma), PC-3 (human prostate carcinoma), SW2 (human small cell lung cancer), A-549 (human non-small cell lung cancer). S91/I3 (mouse melanoma) and CT26 (mouse colon carcinoma). They were used both for cytotoxicity and photocytotoxicity experiments. PC-3. SW2 and S91113 cells were cultured in RPMI-1640 medium (Sigma-Aldrich, Steinheim, Germany) and HT-29, A-549 and CT26 cells were cultured in Dulbecco's Modified Eagle Medium (DMEM) (Cambrex Bioscience, Verviers, Belgium). Both cell culture mediums were supplemented with 10% heat-inactivated Fetal Bovine Serum (FBS) (Cambrex Bioscience, Verviers, Belgium) and 100 IU/ml penicillin-100 μg/ml streptomycin (Cambrex Bioscience, Verviers, Belgium). […] For the in vitro studies, cells at 85-90% confluence, were detached with Trypsin-Versene-EDTA solution (Cambrex Bioscience, Verviers, Belgium), counted and seeded in flat-bottom 96-well plates at the desired densities.
(§2) Cell viability assay. In the end of the experiences cell viability was evaluated by the resazurin reduction assay. […] The absorbance values of each well were measured at 540 nm and 630 nm using a microplate reader Multiskan Ex (Thermo-Electron Corporation, Vartaa, Finland).
Cell photosensitization. […] Cell viability was evaluated approximately 24 h after the irradiation.

[1] = tested on: CT26 (mouse colon carcinoma); assay: Cytotoxicity in the dark, resazurin assay; assay type: cell-based
Method: as §1, with “Belgium).” for “Belgium). Both cell culture mediums were supplemented with 10% heat-inactivated Fetal Bovine Serum (FBS) (Cambrex Bioscience, Verviers, Belgium) and 100 IU/ml penicillin-100 μg/ml streptomycin (Cambrex Bioscience, Verviers, Belgium).”
as §2
Cytotoxicity. […] After the incubation the cell viability was evaluated. […] Cytotoxicity was quantified by expressing cell death relatively to untreated cells (% of control cells). […]

| Compound | concentration of sensitizer required to kill 90% of cells (LD90) (S91I3 (mouse melanoma)) [µM] | highest concentration that causes relatively no effect in viability in the dark [1] [µM] |
| --- | --- | --- |
| O=S(=O)(O)c1ccc(Cl)c(-c2c3nc(c(-c4c(Cl)ccc(S(=O)(=O)O)c4Cl)c4ccc([nH]4)c(-c4c(Cl)ccc(S(=O)(=O)O)c4Cl)c4nc(c(-c5c(Cl)ccc(S(=O)(=O)O)c5Cl)c5ccc2[nH]5)CC4)CC3)c1Cl [Luzitin-Cl2, 5,10,15,20-tetrakis(2,6-dichloro-3-sulfonylphenyl)bacteriochlorin] | 40 | – |
| CCNS(=O)(=O)c1ccc(Cl)c(-c2c3nc(c(-c4c(Cl)ccc(S(=O)(=O)NCC)c4Cl)c4ccc([nH]4)c(-c4c(Cl)ccc(S(=O)(=O)NCC)c4Cl)c4nc(c(-c5c(Cl)ccc(S(=O)(=O)NCC)c5Cl)c5ccc2[nH]5)CC4)CC3)c1Cl [Luzitin-Cl2Et, 5,10,15,20-tetrakis(2,6-dichloro-3-N-ethylsulfamoylphenyl)bacteriochlorin] | – | 50 |
